From US10766928B2, “Targeted conformationally-constrained kinked endosomal disrupting peptides” (priority 2012, dated 2020)
In brackets after ≈: the same amount, converted by molar mass. Read-outs that look alike come from different tables or passages of the source. Non-standard residues stand in square brackets, D forms with d. Residues, ends and D or L forms follow the SMILES beside them. *: point of attachment. Pentanoyl(5-NH-cholesteryl) = CC(C)CCC[C@@H](C)[C@H]1CC[C@H]2[C@@H]3CC=C4C[C@@H](NCCCCC(=O)*)CC[C@]4(C)[C@H]3CC[C@]12C; Cholesteryloxycarbonyl = CC(C)CCC[C@@H](C)[C@H]1CC[C@H]2[C@@H]3CC=C4C[C@@H](OC(=O)*)CC[C@]4(C)[C@H]3CC[C@]12C; PEG3 = NCCOCCOCCOCCC(=O)O; Pra = C#CC[C@H](N)C(=O)O; Aib = CC(C)(N)C(=O)O; βAla = NCCC(=O)O

Legend:
[1] = tested on: endosomes of Jurkat lymphocytes; assay: Endosome disruption in Jurkat lymphocytes: release of carboxyfluorescein from disulfide probe Compound 2, flow cytometry
How it was run: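 Human Jurkat cells treated with compounds plus disulfide probe Compound 2 (2.5 μM) for 14 h at 37 °C. Cytoplasmic release of pH-sensitive fluorophore Compound 3 quantified by flow cytometry. IC50 by non-linear regression; efficacy as % fluorescence change relative to Compound 1 maximum (100%).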

[2] = tested on: Jurkat lymphocytes
Protocol: The effects of the compounds of the invention on human Juikat leukemia cells were evaluated using flow cytometry-based assays of potency, efficacy, and toxicity. […] Analysis of flow cytometry data by non-linear regression was used to determine IC50 values for potency with the efficacy expressed as a percentage. […] Dose-dependent effects on cellular viability after 48 h at 37° C. in culture were also measured by flow cytometry.
The # represents the compound number in accordance with Tables A, B, and C. Concentrations of compound stock solutions were determined by absorbance measurements at 280 nm. Efficacy was determined as % change in cellular fluorescence relative to the maximal response of Compound 1, defined as 100%. Potencies and efficacies in Jurkat lymphocytes were measured by flow cytometry after treatment of cells with the compounds listed and the fluorescent probe Compound 2 (2.5 μM) for 14 hours. Toxicity to this cell line was determined by flow cytometry analysis of light scattering and counterstaining with PI after treatment for 48 h at 37° C. in culture. […] N.D., not determined.

[3] = Thermodynamic solubility in PBS (pH 7.4); format: physicochemical; details: PBS pH 7.4, 24 hours at 22° C., ±S.D.; for solubility thermodynamic at 24 h: pH 7.4, Table 1
From the text: Values in parentheses represent 95% confidence intervals. N.D., not determined.
Measurements represent duplicate or more replicates, with active peptides subjected to multiple replicates. ND: not determined. The peptide was non-toxic and soluble in cell culture medium at this concentration.

[4] = phosphate buffered saline, read-out: Solubility (aq.)

Compound | EC50 ([1]; 14 h) [µM] | IC50 ([2]; 48 h) [µM] | Solubility (aq., μM) ([3]; Table 1) [µM] | solubility thermodynamic at 24 h [3, 4] [µM] | solubility at 24 h ([3]; phosphate buffered saline, Table 1, read-out: Solubility (aq.)) [µM] | Endosome disruption activity (in words) ([1]; Jurkat endosome disruption assay) | Efficacy (% of max. 1) ([1]; Table 1, % change in cellular fluorescence relative to maximal response of Compound 1 (100%), Jurkat, 14 hours) [%] | EC50 ([1]; read-out: Potency (EC50), Table 1, Jurkat lymphocytes, probe Compound 2 (2.5 μM), 14 hours, 95% confidence interval in neighbouring cell) [µM] | IC50 ([2]; read-out: Toxicity (IC50), Table 1, Jurkat lymphocytes, 48 h at 37° C.) [µM]
C#CC[C@H](NC(=O)[C@H](CCC(=O)O)NC(=O)[C@H](CCC(=O)O)NC(=O)CCNC(=O)CCCCN[C@H]1CC[C@@]2(C)C(=CC[C@H]3[C@@H]4CC[C@H]([C@H](C)CCCC(C)C)[C@@]4(C)CC[C@@H]32)C1)C(=O)NCCOCCOCCOCCC(=O)NCCOCCOCCOCCC(=O)NC(C)(C)C(=O)NC(C)(C)C(=O)NC(C)(C)C(=O)NC(C)(C)C(=O)N[C@@H](Cc1ccc(O)cc1)C(=O)N[C@@H](Cc1ccc(O)cc1)C(=O)N[C@@H](C)C(=O)N[C@@H](Cc1ccc(O)cc1)C(=O)N[C@@H](Cc1ccc(O)cc1)C(=O)N1CCC[C@H]1C(=O)N1CCC[C@H]1C(=O)N[C@H](C(=O)N[C@H](C(N)=O)C(C)C)C(C)C [Compound 30, R = BEEZOOUUUUYYAYYPPVV-CONH2] ({Pentanoyl(5-NH-cholesteryl)-βAla}-EE[Pra][PEG3][PEG3][Aib][Aib][Aib][Aib]YYAYYPPVV-NH2) | 0.03 | 2 | 3 ± 1 (≈ 8.32 µg/mL) | < 5 |  |  |  |  | 
CC(C)CCC[C@@H](C)[C@H]1CC[C@H]2[C@@H]3CC=C4C[C@@H](OC(=O)NCCC(=O)NCCC(=O)N[C@@H](CCC(=O)O)C(=O)N[C@@H](CCC(=O)O)C(=O)NCCOCCOCCOCCC(=O)NCCOCCOCCOCCC(=O)NC(C)(C)C(=O)NC(C)(C)C(=O)NC(C)(C)C(=O)NC(C)(C)C(=O)N[C@@H](Cc5c[nH]c6ccccc56)C(=O)N[C@@H](Cc5c[nH]c6ccccc56)C(=O)N[C@@H](C)C(=O)N[C@@H](Cc5ccc(O)cc5)C(=O)N[C@@H](Cc5c[nH]c6ccccc56)C(=O)N5CCC[C@H]5C(=O)N5CCC[C@H]5C(=O)N[C@H](C(=O)N[C@@H](C)C(N)=O)C(C)C)CC[C@]4(C)[C@H]3CC[C@]12C [Compound 34, R″ = BEEOOUUUUWWAYWPPVA-CONH2] ({Cholesteryloxycarbonyl-βAla-βAla}-EE[PEG3][PEG3][Aib][Aib][Aib][Aib]WWAYWPPVA-NH2) | 0.1 | 17 |  |  | 405 (≈ 1110 µg/mL) |  |  |  | 
C#CC[C@H](NC(=O)[C@H](CCC(=O)O)NC(=O)[C@H](CCC(=O)O)NC(=O)CCNC(=O)CCNC(=O)O[C@H]1CC[C@@]2(C)C(=CC[C@H]3[C@@H]4CC[C@H]([C@H](C)CCCC(C)C)[C@@]4(C)CC[C@@H]32)C1)C(=O)NCCOCCOCCOCCC(=O)NCCOCCOCCOCCC(=O)NC(C)(C)C(=O)NC(C)(C)C(=O)NC(C)(C)C(=O)NC(C)(C)C(=O)N[C@@H](Cc1c[nH]c2ccccc12)C(=O)N[C@@H](Cc1c[nH]c2ccccc12)C(=O)N[C@@H](C)C(=O)N[C@@H](Cc1ccc(O)cc1)C(=O)N[C@@H](Cc1c[nH]c2ccccc12)C(=O)N1CCC[C@H]1C(=O)N1CCC[C@H]1C(=O)N[C@H](C(=O)N[C@H](C(N)=O)C(C)C)C(C)C [Compound 36, R″ = BEEZOOUUUUWWAYWPPVV-CONH2] ({Cholesteryloxycarbonyl-βAla-βAla}-EE[Pra][PEG3][PEG3][Aib][Aib][Aib][Aib]WWAYWPPVV-NH2) | 0.06 | 13 |  | 233 ± 21 (≈ 666 µg/mL) |  |  |  |  | 
CC(C)CCC[C@@H](C)[C@H]1CC[C@H]2[C@@H]3CC=C4C[C@@H](NCCCCC(=O)NCCC(=O)N[C@@H](CCC(=O)O)C(=O)N[C@@H](CCC(=O)O)C(=O)NCCOCCOCCOCCC(=O)NCCOCCOCCOCCC(=O)NC(C)(C)C(=O)NC(C)(C)C(=O)NC(C)(C)C(=O)NC(C)(C)C(=O)N[C@@H](Cc5ccc(O)cc5)C(=O)N[C@@H](Cc5ccc(O)cc5)C(=O)N[C@@H](Cc5ccc(O)cc5)C(=O)N[C@@H](Cc5ccc(O)cc5)C(=O)N[C@@H](Cc5ccc(O)cc5)C(=O)N5CCC[C@H]5C(=O)N5CCC[C@H]5C(=O)N[C@H](C(=O)N[C@H](C(N)=O)C(C)C)C(C)C)CC[C@]4(C)[C@H]3CC[C@]12C [Compound 29, R = BEEOOUUUUYYYYYPPVV-CONH2] ({Pentanoyl(5-NH-cholesteryl)-βAla}-EE[PEG3][PEG3][Aib][Aib][Aib][Aib]YYYYYPPVV-NH2) | 0.08 | 3 |  | 90 ± 2 (≈ 249 µg/mL) |  |  |  |  | 
CC(=O)NC(C)(C)C(=O)NC(C)(C)C(=O)NC(C)(C)C(=O)N[C@@H](Cc1c[nH]c2ccccc12)C(=O)N[C@@H](Cc1c[nH]c2ccccc12)C(=O)N[C@@H](C)C(=O)N[C@@H](Cc1ccc(O)cc1)C(=O)N[C@@H](Cc1c[nH]c2ccccc12)C(=O)N1CCC[C@H]1C(=O)N1CCC[C@H]1C(=O)N[C@H](C(=O)N[C@@H](C)C(N)=O)C(C)C [Compound 41] (Ac-[Aib][Aib][Aib]WWAYWPPVA-NH2) |  |  |  | 24 ± 3 (≈ 35.3 µg/mL) |  | substantial endosome disruption activity | 53 | 5.9 | > 100
